Results taken from PubChem BioAssay AID2060488 (Molecular Pharmacology Branch, DTP, NCI, 2025).

System: 966289-007-R4-J1-PDC complex spheroid viability
Test: Anticancer human tumor 966289-007-R4-J1-PDC patient-derived pancreatic adenocarcinoma cell line growth inhibition [GQUAD]
Conditions: for IC50: curve of first compound; for viability, T/C: stronger effect = lower value; active means viability on the fitted dose curve at most 10% of control; inactive means the rest
Description: DNA G-quadruplex Stabilizer Agents in Combinations in Complex Spheroids
A high-throughput screen of multi-cell type tumor spheroids was designed to identify active combinations of DNA G-quadruplex stabilizer agents and targeted small molecules. Complex spheroids include a stromal component modeled by human endothelial cells (HUVEC) and fibroblasts modeled by human mesenchymal stem cells (MSCs). The concentration ranges selected for each drug and investigational agent were based upon clinically achievable concentrations if the clinical Cmax of the agent was known.
Compounds. The drugs and investigational agents: pidnarulex (CX-5461; NSC782164), APTO-253 (NSC789042), BRACO-19 (NSC847499), peposertib (NSC802822), ceralasertib (NSC780249), elimusertib (NSC800525), camonsertib (NSC841442), AZD-1390 (NSC803789), olaparib (NSC753686), talazoparib (NSC767125), ART-558 (NSC835418), sotorasib (NSC818433), MRTX-1133 (NSC836407), SN-38 (NSC673596), topotecan (NSC609699), etoposide (NSC141540), doxorubicin (NSC123127), gemcitabine (NSC613327), 5-fluorouracil (NSC19893), paclitaxel (NSC125973), vemurafenib (NSC761431), panobinostat (NSC761190), R-306465 (JNJ-16241199; NSC773264), adavosertib (NSC754352), TP-3654 (NSC805149), carboplatin (NSC241240), KSQ-4279 (NSC840948), and staurosporine (NSC755774) were obtained from the National Cancer Institute (NCI) Developmental Therapeutics Program Chemical Repository (34). The FDA-approved anticancer drug set is available from the NCI Developmental Therapeutics Program. […] The stock solutions were prepared in dimethyl sulfoxide (DMSO, Sigma-Aldrich, St. Louis, MO, cat. D2650) at 800-fold the tested concentration and stored at -70 degrees C prior to their use. All drugs and investigational agents were tested over a range starting from a high concentration at or near the clinical Cmax and decreasing in half-log increments. If the clinical Cmax for an agent had not been determined, the highest concentration tested was 10 microM.
2.3 Cell Culture. All cells were maintained in an incubator at 37 degrees C and 5% CO2 with 95% humidity. The PDC lines were cultured according to standard operating procedures established by the NCI PDMR. All PDCs were thawed and cultured in Matrigel-coated flasks prepared with a working solution of 1X Ham's F-12 nutrient mix, without supplementation (Invitrogen, cat. 11765054), 100 U/mL penicillin-streptomycin (Invitrogen, cat. 15140122), and 2.5% Matrigel (Corning Inc., cat. 354248) for the first three passages. The 857933-349-R-J2-PDC line was cultured in 6C/Colon 1B media, which includes advanced DMEM/F-12 (Thermo Fisher Scientific, cat. 12634028), 10 mM HEPES (Thermo Fisher Scientific, cat. 15630080), 1X GlutaMAX supplement (Thermo Fisher Scientific, cat. 35050061), 0.1 mg/mL primocin (InvivoGen, cat. ant-pm-2), 10% defined fetal bovine serum, heat inactivated (HyClone Laboratories Inc., cat. SH30070.03HI), 50% L-WRN conditioned media (ATCC, cat. CRL-3276), 1.25 mM N-Acetyl-L-cysteine (Sigma-Aldrich, cat. A9165), 10 mM nicotinamide (Sigma-Aldrich, cat. N0636), 1X B-27 supplement (Thermo Fisher Scientific, cat. 17504044), 1X N-2 supplement (Thermo Fisher Scientific, cat. 17502048), 10 microM Y-27632 dihydrochloride (Tocris Bioscience, cat. 1254), and 50 ng/mL human EGF recombinant protein (Thermo Fisher Scientific, cat. PHG0311). The 485176-168-R4-J1-PDC line was cultured in Panc media, which includes all 6C/Colon 1B media components plus 100 ng/mL human FGF-10 (Thermo Fisher Scientific, cat. 100-26), 500 nM SB-431542 (Selleckchem, cat. S1067), and gastrin (Tocris, cat. 3006).
[…]
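Further: spheroids exposed to the agents for seven days before readout.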
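Wherever viability, T/C is given: percent viability relative to DMSO vehicle control wells taken as 100%.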

COc1ccc([C@@H](O)c2cc(-c3ncnc4cc(N5CCOCC5)ccc34)c(F)cc2Cl)nn1 + Cc1[nH]c2ccc(F)cc2c1-c1nc2c3cccnc3c3ncccc3c2[nH]1
> 10 µM: IC50 (second compound 0.0316 µM) | IC50 (second compound 0.1 µM) | IC50 (second compound 0.316 µM) | IC50 (second compound 1 µM) | IC50 (second compound 3.16 µM) | IC50 (second compound 10 µM)
inactive: viability, T/C (second compound 0.0316 µM, first compound 0.0316 µM) 106% | viability, T/C (second compound 0.0316 µM, first compound 0.1 µM) 94.7% | viability, T/C (second compound 0.0316 µM, first compound 0.316 µM) 108% | viability, T/C (second compound 0.0316 µM, first compound 1 µM) 104% | viability, T/C (second compound 0.0316 µM, first compound 3.16 µM) 112% | viability, T/C (second compound 0.0316 µM, first compound 10 µM) 85.6% | viability, T/C (second compound 0.1 µM, first compound 0.0316 µM) 107% | viability, T/C (second compound 0.1 µM, first compound 0.1 µM) 101% | viability, T/C (second compound 0.1 µM, first compound 0.316 µM) 106% | viability, T/C (second compound 0.1 µM, first compound 1 µM) 104% | viability, T/C (second compound 0.1 µM, first compound 3.16 µM) 111% | viability, T/C (second compound 0.1 µM, first compound 10 µM) 87.8% | viability, T/C (second compound 0.316 µM, first compound 0.0316 µM) 94.5% | viability, T/C (second compound 0.316 µM, first compound 0.1 µM) 102% | viability, T/C (second compound 0.316 µM, first compound 0.316 µM) 104% | viability, T/C (second compound 0.316 µM, first compound 1 µM) 108% | viability, T/C (second compound 0.316 µM, first compound 3.16 µM) 111% | viability, T/C (second compound 0.316 µM, first compound 10 µM) 92.9% | viability, T/C (second compound 1 µM, first compound 0.0316 µM) 91.3% | viability, T/C (second compound 1 µM, first compound 0.1 µM) 98.4% | viability, T/C (second compound 1 µM, first compound 0.316 µM) 108% | viability, T/C (second compound 1 µM, first compound 1 µM) 106% | viability, T/C (second compound 1 µM, first compound 3.16 µM) 109% | viability, T/C (second compound 1 µM, first compound 10 µM) 87.8% | viability, T/C (second compound 3.16 µM, first compound 0.0316 µM) 100% | viability, T/C (second compound 3.16 µM, first compound 0.1 µM) 103% | viability, T/C (second compound 3.16 µM, first compound 0.316 µM) 109% | viability, T/C (second compound 3.16 µM, first compound 1 µM) 108% | viability, T/C (second compound 3.16 µM, first compound 3.16 µM) 103% | viability, T/C (second compound 3.16 µM, first compound 10 µM) 70.7% | viability, T/C (second compound 10 µM, first compound 0.0316 µM) 103% | viability, T/C (second compound 10 µM, first compound 0.1 µM) 103% | viability, T/C (second compound 10 µM, first compound 0.316 µM) 106% | viability, T/C (second compound 10 µM, first compound 1 µM) 102% | viability, T/C (second compound 10 µM, first compound 3.16 µM) 105% | viability, T/C (second compound 10 µM, first compound 10 µM) 56.3%
